Experimental data from paper PMC8125408, “Polyoxazolines with a Vicinally Double-Bioactivated Terminus for Biomacromolecular Affinity Assessment” (Sensors (Basel, Switzerland), 2021).
Like-named read-outs stand apart in the source and are kept apart here.

What was measured:
Concanavalin A (ConA) [1] = biological target: T1, Concanavalin A (ConA) (Canavalia ensiformis, UniProt P02866); conditions: PBS, 25 °C, four ConA concentrations 118 to […], no aff. = no affinity of the conjugate to the lectin could be determined
Experimental: SAW measurements were performed with apparatus from SAW Instruments GmbH, which included an autosampler and allowed for measuring of protein adsorption and KD value determination. Measurements were performed at 25 °C using PBS as a running buffer. For the immobilization of polymers containing a thioether group on the bare gold sensor chip surface 30 µL of polymers per lane (concentration: 10 µg·mL^−1 in PBS) were preincubated onto the sensor chip for 1 h with an external application mask. Remaining unspecific protein binding sites on the bare gold surface were saturated by the injection of 500 µM BSA. Purified recombinant ConA was used as an analyte at four concentrations, ranging from 118 to 944 nM. The flow rate for the acquisition of interaction data was set to 40 µL·min^−1 in all experiments. Association was measured for 300 s, then dissociation was initiated by perfusing the running buffer, and the dissociation phase was also monitored for 300 s. Regeneration of the chip surface was performed by injection of two 60 s pulses of 100 mM glycine (pH 2.5) at a flow rate of 100 µL·min^−1. Interaction data were analyzed using the FitMaster add-in (SAW Instruments GmbH) of Origin software version 8.5 (OriginLab Corporation), applying a simple Langmuir-type 1:1 interaction model. Association rate constant kon values and dissociation rates constant koff values were obtained by fitting data of individual experiments. Equilibrium binding KD values were deduced using the equation KD = koff/kon. […]
Following the preparation of the gold surface with the polymer conjugates and saturation with BSA, the main measurement can be performed by analyzing the binding affinity of the lectin to the functionalized surface. For this, a constant flow of a series of ConA dilutions with defined concentrations of ConA is injected on each channel and the phase change of surface acoustic waves, which are influenced by binding events, is monitored. […] After measuring four different ConA concentrations, the binding and dissociation curves are fitted and the KD value is calculated.

Concanavalin A (ConA) [2] = biological target: T1, Concanavalin A (ConA); conditions: HBS150T pH 7.4, 25 °C, ConA 118 to […], no aff. = no affinity could be determined
Experimental: Interactions between polymers and Concanavalin A (ConA) were measured by SPR using a […] ®4SPR system (Reichert Technologies). Measurements were performed at 25 °C using HBS150T (10 mM HEPES (pH 7.4), 150 mM NaCl, 3.4 mM EDTA, 0.005% (v/v) Tween 20) as running buffer. For the immobilization of polymers containing a thioether group on the bare gold sensor chip surface, the polymers were injected onto a sensor for 8 min at a flow rate of 10 µL/min to cause polymer coating to a final density of 1000 resonance units. Remaining unspecific protein binding sites on the bare gold surface were saturated by the injection of 500 µM BSA. Purified recombinant ConA was used as an analyte at four concentrations, ranging from 118 to 944 nM. The flowrate for the acquisition of interaction data was set to 25 µL·min^−1 in all experiments. Association was measured for 180 s, then dissociation was initiated by perfusing running buffer, and the dissociation phase was monitored for 300 s. Regeneration of the chip surface was performed by injecting two 60 s pulses of 100 mM glycine (pH 2.5) at a flow rate of 100 µL·min^−1. Interaction data were analyzed using the software TraceDrawer version 1.8.1 (Ridgeview Instruments AB, Uppsala, Sweden), applying a simple Langmuir-type 1:1 interaction model and using global fitting for the rate constants. Association rate constant kon values and dissociation rates constant koff values were obtained by fitting the data of individual experiments. Equilibrium binding KD values were deduced using the equation KD = koff/kon. All SPR experiments were performed in at least three independent experiments.
Preparing the samples is identical to SAW measurements. The SPR measuring channels were coated with polymer solution, and unoccupied gold surface was saturated with BSA.

CGGWYKYW-PMeOx20-SEt
no aff.: SAW KD (Concanavalin A (ConA) [1]; Lane 1) | SAW KD (Concanavalin A (ConA) [1]; Lane 2) | SAW KD (Concanavalin A (ConA) [1]; Lane 3) | SPR KD (Concanavalin A (ConA) [2]; Lane 1 (for III: repeat (1))) | SPR KD (Concanavalin A (ConA) [2]; Lane 2 (for III: repeat (1))) | SPR KD (Concanavalin A (ConA) [2]; Lane 3 (for III: repeat (1))) | SPR KD (Concanavalin A (ConA) [2]; Lane 4 (for III: repeat (1)))
